Measured values: patent EP4810493A1, “HETEROCYCLIC CARBONYL DERIVATIVE MODULATOR, PREPARATION METHOD THEREFOR, AND USE THEREOF” (Shanghai Hansoh Biomedical Co., Ltd., priority 2023, dated 2025)
Where two headings read alike, the source gives them in different places.

Assays:
[1] = six weeks of dosing, cited from earlier work
[2] = Pharmacokinetic determination in SD rats; details: rat, in vivo, po, male SD rats, p.o. 5 mg/kg; for MRT inf: read-out: MRT 0-∞
Procedure: To investigate the pharmacokinetic behaviours of the example compounds in both plasma and brain of SD rats (test animals) following oral administration at a dose of 5 mg/kg.
(§1) 2.1 Test drugs: The example compounds of the present invention, made in house.
2.2 Test animals: SD Rat, male.
24 SD Rats, male; p.o. respectively at a dose of 5 mg/kg and an administration volume of 10 mL/kg after the rats were fasted overnight.
(§2) Formulation of a drug for oral administration: 0.5% CMC-Na (1% Tween 80).
(§3) 0.50 g of sodium carboxymethyl cellulose (CMC-Na, viscosity: 800-1200 Cps) was weighed and dissolved in 99 mL of purified water, and 1 ml of Tween 80 was added. The components were mixed thoroughly under stirring to form a clear solution.
The example compound was weighed into a 100 mL glass vial, 80 mL of the solution was added, and the mixture was subjected to ultrasound treatment for 10 minutes to obtain a homogeneous suspension with a concentration of 0.5 mg/mL.
(§4) After the test animals were euthanised by CO2, blood samples were collected from the heart and brain tissues were harvested at 0.25 h, 0.5 h, 1 h, 2 h, 4 h, 6 h, 8 h, and 24 h post-dose. Blood was placed in EDTA-2K tubes, and centrifuged at 6000 rpm for 6 min at 4°C to separate the plasma. Brain tissues were rinsed with pre-cold PBS, blotted dry, and weighed. Both plasma and brain samples were stored at -80°C. The animals were fed 4 h after administration.
(§5) • 3) 40 uL of plasma sample was precipitated with 160 uL of acetonitrile, mixed, and centrifuged at 3500 × g for 5-20 min. Brain tissues were diluted, homogenised and centrifuged. • 4) 100 uL of the treated supernatant solution was taken for LC/MS/MS analysis to determine the concentration of the test compounds.
(§6) • Liquid phase conditions: Shimadzu LC-20AD pump • Mass spectrometry conditions: AB Sciex API 4000 mass spectrometer • Chromatographic column: Phenomenex Gemiu 5 um C18 50 × 4.6 mm • Mobile phase: solution A: 0.1% formic acid in water, solution B: acetonitrile • Flow rate: 0.8 mL/min • Elution time: 0-4.0 min, with eluents as follows:
(§7) The main pharmacokinetic parameters were calculated using WinNonlin 8.1.

[3] = target: T1, M4 receptor (Homo sapiens, UniProt P08173); assay: Calcium flux (FLIPR) potentiation assay in cells stably expressing M4 receptor; assay type: cell-based
T1 construct: expressed in transfected cells
T1 sequence (P08173 1-479): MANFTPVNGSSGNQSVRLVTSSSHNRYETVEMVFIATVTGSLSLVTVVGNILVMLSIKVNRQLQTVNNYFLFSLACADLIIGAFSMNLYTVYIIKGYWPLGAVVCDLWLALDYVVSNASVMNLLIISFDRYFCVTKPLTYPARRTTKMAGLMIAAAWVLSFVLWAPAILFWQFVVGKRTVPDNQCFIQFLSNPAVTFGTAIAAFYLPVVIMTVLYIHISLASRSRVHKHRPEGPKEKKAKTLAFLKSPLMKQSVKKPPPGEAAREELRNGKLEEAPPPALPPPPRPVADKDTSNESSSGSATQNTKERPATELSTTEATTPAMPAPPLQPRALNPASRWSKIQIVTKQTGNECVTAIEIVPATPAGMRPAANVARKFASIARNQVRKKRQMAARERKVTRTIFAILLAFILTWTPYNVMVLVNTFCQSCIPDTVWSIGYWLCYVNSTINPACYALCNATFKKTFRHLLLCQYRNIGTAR
How it was run: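 CHO-K1 cells co-expressing Gα15, loaded with Calcium 6 dye 1 h at room temperature, preincubated 2 min with compound ([…]), then challenged with acetylcholine at EC20. Peak fluorescence expressed as % activation between DMSO and ACh EC100 controls.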

[4] = Pharmacokinetic determination in Balb/c mice; details: mouse, in vivo, po, male Balb/c mice, p.o. 5 mg/kg; for MRT inf: read-out: MRT 0-∞
Procedure: To investigate the pharmacokinetic behaviours of the example compounds in both plasma and brain of Balb/c mice (test animals) following oral administration at a dose of 5 mg/kg.
as §1
2.2 Test animals: Balb/c Mouse, male.
24 Balb/c mice, male; p.o. respectively at a dose of 5 mg/kg and an administration volume of 10 mL/kg after the mice were fasted overnight.
as §2, §3
The example compound was weighed into a 4-mL glass vial, 2.4 mL of the solution was added, and the mixture was subjected to ultrasound treatment for 10 minutes to obtain a homogeneous suspension with a concentration of 0.5 mg/mL.
as §4
as §5, with “1)” for “3)”, “2)” for “4)”
as §6, §7

[5] = in vivo; cited from earlier work
[6] = CHO-K1/M4/Gα15 cells, potentiation of acetylcholine (EC20) calcium flux, read-out: M4 FLIPR EC50

## Cc1cc(C)c2c(n1)CN(C(=O)CC1CN(c3ccnc(C(F)(F)F)c3)C1)C2 [CVL-231]
[1]; 20 mg twice daily
  mean reduction in the Positive and Negative Syndrome Scale (PANSS) total score from baseline: 17.9 points
[1]; 30 mg once daily
  mean reduction in the Positive and Negative Syndrome Scale (PANSS) total score from baseline: 19.5 points

## Cc1c2c(c3ncnn3c1C)CN(C(=O)OC1CN(c3ccnc(C(F)(F)F)c3)C1)C2 [Example 32, 1-(2-(Trifluoromethyl)pyridin-4-yl)azetidin-3-yl 5,6-dimethyl-7,9-dihydro-8H-pyrrolo[3,4-c][1,2,4]triazolo[1,5-a]pyridine-8-carboxylate]
[2]
  AUC(0-inf): 17500 ng·h/mL
  Cmax: 4520 ng/mL
  Tmax: 2 h
  MRT inf: 2.7 h
[3]; [6]
  EC50: 72.4 nM
[4]
  AUC(0-inf): 7370 ng·h/mL
  Cmax: 2560 ng/mL
  Tmax: 0.5 h
  MRT inf: 2.5 h

## Cc1c2c(c3ncnn3c1C)CN(C(=O)CC1CN(c3ccnc(OC(F)F)c3)C1)C2 [Example 52]
[2]
  AUC(0-inf): 10800 ng·h/mL
  Cmax: 2450 ng/mL
  Tmax: 2 h
  MRT inf: 2.6 h
[3]; [6]
  EC50: 13.9 nM
[4]
  AUC(0-inf): 2540 ng·h/mL
  Cmax: 1950 ng/mL
  Tmax: 0.25 h
  MRT inf: 1.2 h

## Cc1cn2nc(N3CC(OC(=O)N4Cc5c(C)c(C)n6ncnc6c5C4)C3)ccc2n1 [Example 105]
[2]
  AUC(0-inf): 16300 ng·h/mL
  Cmax: 2680 ng/mL
  Tmax: 1 h
  MRT inf: 4.3 h
[3]
  EC50: 19.9 nM
[4]
  AUC(0-inf): 10200 ng·h/mL
  Cmax: 1570 ng/mL
  Tmax: 0.5 h
  MRT inf: 4.3 h

## Cc1c2c(c3ncnn3c1C)CN(C(=O)OC1CN(c3ccnc(OC(F)F)c3)C1)C2 [Example 123]
[2]
  AUC(0-inf): 12200 ng·h/mL
  Cmax: 2530 ng/mL
  Tmax: 2 h
  MRT inf: 3.5 h
[4]
  AUC(0-inf): 4160 ng·h/mL
  Cmax: 1040 ng/mL
  Tmax: 0.5 h
  MRT inf: 3.8 h

## Cc1c2c(c3ncnn3c1C)CN(C(=O)CC1CN(c3ncc(C(F)(F)F)cn3)C1)C2 [Example 144, 1-(5,6-Dimethyl-7,9-dihydro-8H-pyrrolo[3,4-c][1,2,4]triazolo[1,5-a]pyridin-8-yl)-2-(1-(5-(trifluoromethyl)pyrimidin-2-yl)azetidin-3-yl)ethan-1-one]
[2]
  AUC(0-inf): 11000 ng·h/mL
  Cmax: 1710 ng/mL
  Tmax: 2 h
  MRT inf: 4.6 h
[3]; [6]
  EC50: 85.8 nM
[4]
  AUC(0-inf): 4790 ng·h/mL
  Cmax: 1890 ng/mL
  Tmax: 0.5 h
  MRT inf: 1.4 h

## Cc1nnc2sc(C(=O)NCc3ccc(S(=O)(=O)C(F)(F)F)cc3)c(N)c2c1C [VU0467154]
[5]
  learning deficits induced by the NMDA receptor antagonist MK-801: improved learning deficits
